In patent US20140289973A1, “1-Hexyl-1H-Pyrazole-4,5-Diamine Hemisulfate, and Its Use in Dyeing Compositions” (The Procter & Gamble Company, priority 2012, published 2014):

Assay: Storage stability of C6-pyrazole salts, HPLC measurement of dimer formation
Assay type: physicochemical
Settings: for Amount of dimers at the time point t0: t0, sample of about 1.5 g spread on filter paper, HPLC, dimer of formula (II); for Amount of dimers at the time point t1: t1, 23 days in closed dark storage room at 21° C., controlled humidity; for Amount of dimers at the time point t2: t2, 26 days: 23 days dark, then 3 days without light protection under lab hood at room temperature, higher air humidity; for Amount of dimers at the time point t3: t3, 31 days: 5 extra days under the same conditions as t2
Procedure: As summarized in the table below, three 1-hexyl-1H-pyrazole-4,5-diamine salts were synthesized through precipitation of the free base in presence of the corresponding acids and purification to obtain the hemisulfate, sulfate and dihydrochloride salts. Each sample was then placed on paper.
In order to measure and compare the stability of the three different salts, a small amount of each sample was taken at four different time points and an HPLC analysis was conducted in order to measure the formation of the undesired dimer of formula (II).

| Rate of formation of the dimer impurity (compared with the sulfate and dihydrochloride salts, storage conditions of table 1) | Stability compared with the corresponding sulfate and dihydrochloride salts (conditions of storage described in table 1) | Amount of dimers at the time point t0 | Amount of dimers at the time point t1 | Amount of dimers at the time point t2 | Amount of dimers at the time point t3 | SMILES |
| --- | --- | --- | --- | --- | --- | --- |
| much lower | more stable | 6 ppm | 37 ppm | 43 ppm | 74 ppm | CCCCCCn1ncc(N)c1N.CCCCCCn1ncc(N)c1N.O=S(=O)(O)O [C6-Pyrazole hemisulfate, 1-hexyl-1H-pyrazole-4,5-diamine hemisulfate] |
|  |  | 11 ppm | 461 ppm | 726 ppm | 1083 ppm | CCCCCCn1ncc(N)c1N.O=S(=O)(O)O [C6-Pyrazole sulfate] |
|  |  | 45 ppm | 511 ppm | 772 ppm | 1323 ppm | CCCCCCn1ncc(N)c1N.Cl.Cl [C6-Pyrazole x 2 HCl] |
